Test results from article PMC7083565, “In vitro metabolism, reaction phenotyping, enzyme kinetics, CYP inhibition and induction potential of ataluren” (Pharmacology Research & Perspectives, 2020).

Assays:
Type in all cases: in vitro ADME
[1] = Incubation with 16 individual human liver microsomes (correlation analysis); settings: 60 minutes, n = 2
Procedure: Ataluren at a concentration of 10 μmol/L, was incubated (n = 2) with 16 individual HLM at 0.5 mg protein concentration/mL for 0 and 60 minutes at 37°C. Enzyme activities for UGTs 1A1, 1A4, 1A6, 1A9, and 2B7 were precharacterized under optimized conditions by the vendor. Incubation mixtures and procedures were essentially the same as the above. The supernatant fractions were analyzed by LC‐MS/MS to quantify the formation of ataluren‐O‐1β‐acyl glucuronide and the loss of ataluren, and the enzyme activities were correlated with precharacterized UGT enzyme activities. Detailed LC‐MS/MS conditions are summarized in LC‐MS/MS Analysis section. […] The ataluren acyl glucuronide formation rate after 60 minutes incubation was calculated using the amount of metabolite formed (pmol) divided by the protein amount in the incubation sample ([…]) and the incubation time (60 minutes). […]
Quantification of ataluren loss and ataluren‐O‐1β‐acyl glucuronide formation was carried out with an LC‐MS/MS system, which consisted of two Shimadzu LC‐10ADvp pumps, a SPD10‐AVP UV/Vis detector, a Shimadzu SILHTA autosampler, a Shimadzu DGU‐14A degasser, and a Sciex API 4000 QTRAP mass spectrometer equipped with a Turbo Ionspray ionization source that operated in positive ionization mode. […]

[2] = Metabolism of [14C]-ataluren in pooled human liver microsomes with cofactors
Procedure: [^14C]‐Ataluren at 1, 10, and 100 μmol/L was incubated (n = 3) with pooled HLM (1 mg protein/mL) at 37 ± 1°C in 0.2 mL incubation mixtures (final volume) containing potassium phosphate buffer (50 mmol/L, pH 7.4), MgCl2 (3 mmol/L), and EDTA (1 mmol/L) with and without cofactors, NADPH‐generating system (1 mmol/L NADP, 5 mmol/L glucose‐6‐phosphate, and 1 unit/mL glucose‐6‐phosphate dehydrogenase), and uridine diphosphate glucuronic acid (UDPGA, 8 mmol/L). [^14C]‐Ataluren was added in DMSO (final percent of 0.1% v/v). Reactions were started by the addition of the cofactors and terminated by the addition of stop reagent (0.2 mL of 2% v/v formic acid/acetonitrile) at 0, 60, and 120 minutes. Precipitated protein was removed by centrifugation (920 g for 10 minutes at 10°C). The supernatant fractions were analyzed by LC/RAM/MS to determine percent loss of substrate in incubations. Detailed LC/MS conditions are summarized in LC‐MS/MS Analysis section. After chromatographic separation, the detected radioactive peaks were integrated, and their identity was confirmed using mass spectrometry analysis. [^14C]‐ataluren remaining at specific timepoint after incubation was compared with the amount of [^14C]‐ataluren at 0 minutes incubation sample in the same matrix (eg, with or without cofactors etc) to calculate the percentage of ataluren remaining. The percentage of [^14C]‐ataluren acyl glucuronide formation at specific timepoint after incubation was calculated using the amount of metabolite formed over the total radioactivity in each sample.
[^14C]‐Ataluren and metabolites were monitored by LC/RAM/MS system, which consisted of two Shimadzu LC‐10ATvp pumps (Shimadzu Scientific Instruments, Columbia, MD, USA), a Shimadzu SIL‐5000 autosampler, an IN/US Systems β‐RAM radiometric detector (LabLogic), and a Sciex API 4000 QTRAP triple quadrupole mass spectrometer (Sciex) equipped with a Turbo Ionspray ionization source operated in negative ionization mode. The Ionspray voltage was set at 4.5 kV with the source temperature at 450 °C. MS/MS was carried out with nitrogen as the collision gas. The column used was a Phenomenex Luna C8, 3 μm, 150 × 3.0 mm column (Phenomenex, Torrance, CA, USA). Mobile phase A consisted of 0.2% formic acid in water and mobile phase B consisted of 0.2% formic acid in acetonitrile. The flow rate was 0.50 mL/min with gradient program as follows: hold isocratic at 5% B for 2 minutes; linear gradient from 5% B to 60% B in 20 minutes; linear gradient from 60% B to 95% B in 5 minutes and hold isocratic at 95% B for 2 minutes; linear gradient from 95% B to 5% B in 0.5 minutes and hold isocratic at […] for 3.5 minutes.

[3] = Plasma protein binding (ultrafiltration), monkey; settings: male, cynomolgus, 50 to 50 000 ng/mL, mean ± SD, n = 3, read-out: percentage protein binding (converted)
Procedure: [^14C]‐Ataluren, at 50, 500, 5000, and 50 000 ng/mL or 0.175, 1.75, 17.5, and 175 µM, in male mouse, rat, dog, monkey, and human plasma, was incubated (n = 3) at 37°C for approximately 15 minutes, transferred into Centrifree® Micropartition Units (30 000 Da molecular weight cutoff, 1 mL capacity; Amicon Inc), and centrifuged at 37°C and 2000 g for approximately 10 minutes so that the amount of the sample filtered was approximately ≤ 20% of the total volume. After centrifugation, the entire ultrafiltrate was weighed and analyzed for radioactivity using liquid scintillation counting. The percent bound = (1‐Cu/Cm)×100, where Cu is the concentration of radioactivity in the ultrafiltrate and Cm is the concentration of radioactivity in the plasma before centrifugation.

O=C(O)c1cccc(-c2noc(-c3ccccc3F)n2)c1 [ataluren, Ataluren]
Rate, Loss of ataluren ([1]; individual HLM sample H0273, 10 μmol/L): 111 pmol/mg/min | Rate, Loss of ataluren ([1]; individual HLM sample H0295, 10 μmol/L): 134 pmol/mg/min | ataluren loss ([2]; NADPH fortified HLM, 1, 10 and 100 µmol/L, up to 120 minutes): no ataluren loss was observed | ataluren loss ([2]; UDPGA fortified HLM, 1 µmol/L, 120 minutes, n = 3): 32% | ataluren loss ([2]; UDPGA fortified HLM, 10 µmol/L, 120 minutes, n = 3): 31% | ataluren loss ([2]; UDPGA fortified HLM, 100 µmol/L, 120 minutes, n = 3): 18% | fraction unbound at 15 min [3]: 0.003
